Assay results published in US11952369B2 (Kadmon Corporation, LLC, priority 2022, dated 2024).
Where two headings read alike, the source gives them in different places.

Assays:
[1] = Solubility; format: physicochemical; settings: in vitro assessments
[2] = Phase 1 study: safety assessments; format: in vivo, human
Description: Safety was assessed throughout the study by AEs, vital signs, electrocardiograms, physical examinations, and clinical laboratory tests. The safety population included all subjects who received at least 1 dose of the study drug (oral or IV) in either part of the study.

[3] = Phase 1 study part 1: absolute bioavailability, oral 200-mg tablet plus [14C]-belumosudil IV microtracer, plasma PK; format: in vivo, human; settings: for F, AUCinf (absolute bioavailability, AUCinf,oral/AUCinf,IV): dose-adjusted
Description: This was a single-center, nonrandomized, open-label, 2-part study in 5 healthy male subjects aged 30 to 65 years. All oral doses were administered following an overnight fast and a standard breakfast on the day of dosing.
(timed to occur at the expected maximum concentration [Cmax]). To determine absolute bioavailability, a microtracer dose was chosen as it negates the need for an IV formulation with good stability. Additionally, due to use of a very low dose, further nonclinical studies such as local tolerance and general toxicology studies were not warranted.
Blood samples for IV [^14C]-belumosudil PK analysis and total radioactivity were collected at −0.25, −0.16, −0.08, 0, 0.08, 0.16, 0.25, 0.5, 0.75, 1, 1.5, 2, 3, 4, 5, 6, 8, 10, 12, 22, 34, and 46 hours after the end of infusion (EOI). All samples were processed to plasma within 30 minutes of collection by centrifugation at 2000 g for 10 minutes at 4° C., and
Total [^14C]-belumosudil concentrations were determined by accelerator mass spectrometry (AMS). […] Selected samples were diluted with commercial plasma to ensure that concentrations would fall within the acceptable range for AMS analysis. The samples were converted to graphite through combustion to CO2 followed by reduction to graphite. The graphite targets were then analyzed by AMS (LLOQ of 0.00489, 0.00557, 0.00485, 0.00402, and 0.00372 ng equiv/mL for individual subjects). All ^14C data was background-corrected based on predose [^14C]-belumosudil concentrations.
Eluate fractions corresponding to [^14C]-belumosudil were collected before AMS analysis (LLOQ of 1.55 pg equiv/mL).
PK parameter estimates were used to calculate absolute bioavailability and metabolite-to-parent ratio.

[4] = target: T1, ROCK2 (Rattus norvegicus, UniProt Q62868); test: Inhibition of ROCK2 enzymatic activity, immunoabsorbed full length enzyme, S6 kinase substrate peptide, [γ33P]ATP; format: biochemical; settings: for Ki: ROCK2
T1 construct: Full length rat ROCK1 and ROCK2 proteins were isolated from various tumor cell lines or tissues by immunoabsorption; endogenous in cells
Description: Full length rat ROCK1 and ROCK2 proteins were isolated from various tumor cell lines or tissues by immunoabsorption to 24-well microtiter plates pre-coated with antibodies specific for each isozyme. Reactions were initiated by the addition of S6 kinase substrate peptide, [γ33P]ATP, and study drug, and incubated at 37° C. for 20 minutes. Reactions were terminated by addition of phosphoric acid and the radioactivity was quantified using standard methods.

[5] = Phase 1 study part 2: metabolite identification and profiling in plasma, urine and feces; format: in vivo, human; settings: mean across subjects
Description: To determine the most appropriate sampling pools for metabolite identification/profiling, plasma, urine, and fecal samples were pooled based on mass balance data obtained as described above. Plasma samples were pooled for individual subjects by time points that represented at least 80% of the plasma total radioactivity, as well as pooled across subjects before dosing and at 4-hour and 8-hour time points. Urine samples were pooled from 0 to 24 hours for individual subjects and across subjects for predose and 0- to 6-hour intervals. Fecal samples were pooled for individual subjects depending on time points that represented at least 80% of the […] total radioactivity and across subjects at 0- to 24- and 24- to 48-hour intervals.
[^14C]-belumosudil concentrations were quantified by LC-MS/MS. Chemical structures were then identified for those radioactive components that accounted for >10% of circulating radioactivity in plasma and >10% of the dose in urine and feces. Radioactive components that represented <10% of circulating radioactivity in plasma and <10% of the dose in urine and feces were also identified. Metabolite identification was then performed using accurate mass positive and negative ion full scan and positive ion product ion analyses. […] Any identified components were compared with [^14C] radiochromatograms to identify the metabolite. Predose plasma and urine pools were used to correct for endogenous components during metabolite identification.

[6] = target: cytochrome P450 CYP3A4 (Homo sapiens, UniProt P08684); test: In vitro assessments of belumosudil metabolism; format: in vitro ADME
[7] = Metabolite exposure quantified in clinical trials of the belumosudil development program; format: in vivo, human; settings: clinical trials across the belumosudil development program
[8] = arithmetic mean (standard deviation), Part 1, belumosudil after oral 200-mg tablet
[9] = arithmetic mean (standard deviation), Part 1, oral 200-mg tablet vs IV microtracer
[10] = geometric mean (geometric CV %), Part 1, belumosudil after oral 200-mg tablet
[11] = geometric mean (geometric CV %), Part 1, oral 200-mg tablet vs IV microtracer

T1 sequence (Q62868 whole entry): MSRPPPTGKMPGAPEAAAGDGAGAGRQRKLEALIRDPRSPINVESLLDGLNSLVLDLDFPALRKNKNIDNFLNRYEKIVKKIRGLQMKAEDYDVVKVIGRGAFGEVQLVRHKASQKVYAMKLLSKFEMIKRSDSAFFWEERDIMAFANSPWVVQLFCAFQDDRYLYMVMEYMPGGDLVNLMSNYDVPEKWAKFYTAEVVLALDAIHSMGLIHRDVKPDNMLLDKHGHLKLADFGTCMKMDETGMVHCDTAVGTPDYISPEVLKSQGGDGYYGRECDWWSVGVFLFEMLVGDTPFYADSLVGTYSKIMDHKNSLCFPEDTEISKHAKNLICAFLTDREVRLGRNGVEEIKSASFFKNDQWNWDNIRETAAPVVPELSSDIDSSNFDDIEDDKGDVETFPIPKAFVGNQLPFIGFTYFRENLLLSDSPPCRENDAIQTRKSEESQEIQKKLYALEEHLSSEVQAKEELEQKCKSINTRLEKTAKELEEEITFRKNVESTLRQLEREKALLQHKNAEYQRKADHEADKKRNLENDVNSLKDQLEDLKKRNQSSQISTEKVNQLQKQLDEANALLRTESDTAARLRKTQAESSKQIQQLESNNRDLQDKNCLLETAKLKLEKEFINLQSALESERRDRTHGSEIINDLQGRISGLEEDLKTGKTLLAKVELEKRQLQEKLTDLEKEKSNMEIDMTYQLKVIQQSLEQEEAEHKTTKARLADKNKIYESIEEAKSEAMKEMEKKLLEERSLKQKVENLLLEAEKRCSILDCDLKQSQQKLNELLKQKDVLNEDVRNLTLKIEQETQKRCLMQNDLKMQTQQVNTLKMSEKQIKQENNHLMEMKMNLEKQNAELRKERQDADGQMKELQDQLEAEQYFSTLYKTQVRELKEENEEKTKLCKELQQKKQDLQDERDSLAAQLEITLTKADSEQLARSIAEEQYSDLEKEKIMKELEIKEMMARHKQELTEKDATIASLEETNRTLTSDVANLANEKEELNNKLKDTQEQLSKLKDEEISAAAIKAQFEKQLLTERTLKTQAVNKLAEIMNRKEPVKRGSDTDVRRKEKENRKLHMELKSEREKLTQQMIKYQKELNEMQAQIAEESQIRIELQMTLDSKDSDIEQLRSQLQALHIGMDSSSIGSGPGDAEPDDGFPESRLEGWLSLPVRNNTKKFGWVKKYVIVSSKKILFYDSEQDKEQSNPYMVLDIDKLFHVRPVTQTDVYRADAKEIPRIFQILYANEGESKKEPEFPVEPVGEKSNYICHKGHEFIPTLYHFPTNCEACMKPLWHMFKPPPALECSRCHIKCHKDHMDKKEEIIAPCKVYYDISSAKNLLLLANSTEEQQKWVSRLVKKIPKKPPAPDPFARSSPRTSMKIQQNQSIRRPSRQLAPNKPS
Chain of cytochrome P450 CYP3A4 (P08684 whole entry): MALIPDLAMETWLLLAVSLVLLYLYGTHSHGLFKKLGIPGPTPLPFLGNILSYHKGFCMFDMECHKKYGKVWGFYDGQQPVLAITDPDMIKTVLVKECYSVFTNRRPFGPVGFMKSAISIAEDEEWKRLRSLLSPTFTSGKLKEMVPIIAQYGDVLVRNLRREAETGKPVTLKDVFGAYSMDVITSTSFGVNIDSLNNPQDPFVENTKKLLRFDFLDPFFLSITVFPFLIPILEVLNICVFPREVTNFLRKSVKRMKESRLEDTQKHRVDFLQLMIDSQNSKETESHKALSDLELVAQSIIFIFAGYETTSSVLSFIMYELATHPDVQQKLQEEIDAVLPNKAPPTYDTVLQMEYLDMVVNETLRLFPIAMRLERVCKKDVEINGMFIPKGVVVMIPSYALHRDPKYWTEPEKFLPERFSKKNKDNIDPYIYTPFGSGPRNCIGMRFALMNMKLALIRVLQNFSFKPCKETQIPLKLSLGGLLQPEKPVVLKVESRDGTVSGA

CC(C)NC(=O)COc1cccc(-c2nc(Nc3ccc4[nH]ncc4c3)c3ccccc3n2)c1 [Belumosudil, 2-{3-[4-(1H-indazol-5-ylamino)-2-quinazolinyl]phenoxy}-N-(propan-2-yl) acetamide]
pH dependence of solubility [1]: pH dependent
laboratory, vital sign, electrocardiogram, physical examination findings ([2]; either part of the study): No clinically significant laboratory, vital sign, electrocardiogram, or physical examination findings
deaths, serious AEs, severe AEs, AEs leading to withdrawal ([2]; healthy male subjects, both parts of the study): no deaths, serious AEs, AEs of severe intensity, or AEs leading to subject withdrawal
treatment-emergent AE ([2]; part 1, 200-mg tablet followed by [14C]-belumosudil microtracer infusion, one event, resolved spontaneously 2.5 hours after onset): mild, possibly related rash
treatment-emergent AEs ([2]; part 2, 200-mg [14C]-belumosudil capsule): no treatment-emergent AEs were reported
time at which peak belumosudil concentrations were reached after the oral dose ([3]; Part 1, oral 200-mg tablet): 3 h
AUCextrap [3, 8]: 2.18 (0.919) %
AUCinf [3, 8]: 8890 (4240) ng or ng equiv × h/mL
AUClast [3, 8]: 8730 (4270) ng or ng equiv × h/mL
Clearanance (apparent clearance) [3, 8]: 423 (126) mL/min
Cmax [3, 8]: 1960 (649) ng or ng equiv/mL
F, AUCinf (absolute bioavailability) [3, 9]: 64.5 (10.4) %
F, Cmax (bioavailability) [3, 9]: 23.8 (2.21) %
AUCextrap [3, 10]: 1.95 (64.6); %
AUCinf [3, 10]: 8300 (40.2); ng or ng equiv × h/mL
AUClast [3, 10]: 8120 (41.2); ng or ng equiv × h/mL
Clearanance (apparent clearance) [3, 10]: 402 (40.2); mL/min
Cmax [3, 10]: 1870 (36.7); ng or ng equiv/mL
F, Cmax (bioavailability) [3, 11]: 23.7(9.3); %
F, AUCinf (absolute bioavailability, AUCinf,oral/AUCinf,IV) [3, 11]: 63.7 (17.3); %
F, AUCinf (absolute bioavailability, AUCinf,oral/AUCinf,IV) ([3]; geometric mean (geometric CV %), Part 1, oral 200-mg tablet vs IV microtracer, listed as belumosudil): 63.7%
half-life ([3]; male, human, plasma, other: intravenous and oral, IV and oral dosing comparable, read-out: half-life values following IV and oral dosing): 5 to 6 h
Tmax ([3]; male, human, plasma, po, 200 mg): 2 h
half-life ([3]; male, human, plasma, po, 200 mg, arithmetic mean (standard deviation), Part 1, belumosudil after oral 200-mg tablet, read-out: T1/2 (converted)): 6.05 h
half-life ([3]; male, human, plasma, po, 200 mg, geometric mean (geometric CV %), Part 1, belumosudil after oral 200-mg tablet, read-out: T1/2 (terminal half-life) (converted)): 5.3 h
Ki [4]: 40 ± 5 nM
% ROI, feces (mean % contribution to total sample radioactivity) [5]: (29.60) %
% ROI, feces (mean % contribution to total sample radioactivity) ([5]; listed as belumosudil): 30%
% ROI, plasma (mean % contribution to total plasma radioactivity) [5]: P6 (64.17) %
% ROI, plasma (mean % contribution to total plasma radioactivity) ([5]; listed as belumosudil): 64%
enzyme dependence of metabolism [6]: primarily dependent on cytochrome P450 CYP3A4 activity

NC(=O)COc1cccc(-c2nc(Nc3ccc4[nH]ncc4c3)c3ccccc3n2)c1 [KD025m1, 2-(3-(4-(1H-indazol-5-ylamino)quinazolin-2-yl)phenoxy)acetamide]
exposure relative to the parent [7]: < 5%
Ki [4]: 55 ± 2 nM
inhibition of ROCK2 (Ki) relative to belumosudil ([4]; fold lower inhibition than belumosudil): comparable
